Assay results taken from patent US4555572A, “Pyrazolo[3,4,5-kl]acridine compositions and methods for their production and use” (Warner-Lambert Company, priority 1984, dated 1985).

Legend:
HCT-8 cells = assay: in vitro proliferating human colon adenocarcinoma (HCA) cell screen, HCT-8; assay type: cell-based; settings: HCT-8 cells, 60 to 65 hours, molar concentration for 50% inhibition of growth, read-out: HCA in vitro ID50 avg.
Method in brief: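 HCT-8 colon adenocarcinoma cells seeded in RPMI 1640 + 10% FCS, grown 48 h, then exposed to compounds for 60-65 h at 37 °C, 5% CO2. Nuclei counted by Coulter counter after lysis; ID50 is the molar concentration giving 50% growth inhibition.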

Alcaligenes viscolactis = assay: in vitro antibacterial/antifungal (ABF) agar-disk diffusion assay; assay type: cell-based; settings: read-out: ABF zone diameter A. viscol.; for zone of inhibition at 100 µg/mL: dose .1 mg/ml
Method: (§1) (b) Another test protocol is the in vitro antibacterial/antifungal (ABF) test. Compounds are tested for antimicrobial activity in an agar-disk diffusion assay, a standard microbiological technique for testing antibiotics. After incubation of each culture with a test compound, a zone of inhibition is determined. The zone diameter (mm) of active compounds ranges from a minimum of 14 mm to as high as 60 mm, with a greater diameter reflecting higher activity. For convenience, values are reported for (Alcaligenes viscolactis, Sarcina lutea, Branhamella catarrhalis, Bacillus subtilis, and Streptococcus faecalis.

Bacillus subtilis = assay: as above; assay type: cell-based; settings: for zone of inhibition at 100 µg/mL: dose .1 mg/ml
Method: as §1

Branhamella catarrhalis = assay: as above; assay type: cell-based; settings: Moraxella catarrhalis, read-out: ABF zone diameter B. catarrh.; for zone of inhibition at 100 µg/mL: dose .1 mg/ml; for zone of inhibition at 500 µg/mL: dose .5 mg/ml
Method: as §1

Sarcina lutea = assay: as above; assay type: cell-based; settings: Micrococcus luteus, read-out: ABF zone diameter S. lutea; for zone of inhibition at 1000 µg/mL: dose 1 mg/ml; for zone of inhibition at 500 µg/mL: dose .5 mg/ml
Method: as §1

Streptococcus faecalis = assay: as above; assay type: cell-based; settings: Enterococcus faecalis, read-out: ABF zone diameter S. faecalis; for zone of inhibition at 500 µg/mL: dose .5 mg/ml; for zone of inhibition at 1000 µg/mL: dose 1 mg/ml
Method: as §1

[1] = tested on: lymphocytic leukemia P388; assay: in vivo lymphocytic leukemia P388 test; set-up: species or system CD2 F1 mice; settings: Mus musculus, P388, ip, 120 h, intraperitoneally once daily for five days, read-out: P388 in vivo T/C × 100
Method in brief: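 CD2 F1 mice (6–7 per group) inoculated i.p. with P388 ascitic cells; compound dosed i.p. once daily for 5 consecutive days after inoculation. Survival followed 30 days; efficacy as treated/control survival time ×100 (≥125 criterion); "toxic" if all animals died within 4 days of first dose.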

[2] = Bacillus subtilis, read-out: ABF zone diameter B. subtil.

IC50 (HCT-8 cells) [nM] | SMILES | zone of inhibition at 100 µg/mL (Bacillus subtilis; [2]) [mm] | zone of inhibition at 100 µg/mL (Branhamella catarrhalis) [mm] | zone of inhibition at 500 µg/mL (Streptococcus faecalis) [mm] | zone of inhibition at 100 µg/mL (Alcaligenes viscolactis) [mm] | response vs control in vivo at 12.5 mg/kg [1] [%] | response vs control in vivo at 25 mg/kg [1] [%] | response vs control in vivo at 50 mg/kg [1] [%] | zone of inhibition at 500 µg/mL (Sarcina lutea) [mm] | response vs control in vivo at 6.25 mg/kg [1] [%] | further results
13 | CCN(CC)CCn1nc2c3c(c([N+](=O)[O-])ccc31)Nc1ccc(O)cc1-2 [Example 10, 2-[2-(Diethylamino)ethyl]-2,6-dihydro-5-nitropyrazolo[3,4,5 kl]acridin-9-ol, monomethanesulfonate] | 17 | 18 | 16 |  |  |  |  |  |  | zone of inhibition at 10 µg/mL (Alcaligenes viscolactis; dose .01 mg/ml): 15 mm; zone of inhibition at 1000 µg/mL (Sarcina lutea): 14 mm; response vs control in vivo at 0.38 mg/kg ([1]; 0.38 mg/kg): 138%; response vs control in vivo at 0.75 mg/kg ([1]; 0.75 mg/kg): 149%; response vs control in vivo at 1.5 mg/kg ([1]; 1.50 mg/kg): 158%; response vs control in vivo at 3 mg/kg ([1]; 3.00 mg/kg): 180%
120 | CCN(CC)CCn1nc2c3c(c([N+](=O)[O-])ccc31)Nc1ccc(OC)cc1-2 [Example 5, N,N-Diethyl-9-methoxy-5-nitropyrazolo-[3,4,5-kl]acridine-2(6H)-ethanamine, methanesulfonate (1:1)] | 15 | 16 |  | 18 | 197 | 242 |  | 14 | 158 | zone of inhibition at 1000 µg/mL (Streptococcus faecalis): 14 mm; response vs control in vivo at 3.12 mg/kg ([1]; 3.12 mg/kg): 143%
 | CCN(CC)CCn1nc2ccc([N+](=O)[O-])c3c2c1-c1ccccc1N3 [Example 8, yl-5-nitropyrazolo[3,4,5-kl]acridine-1(6H)-ethanamine, monomethanesulfonate] |  |  | 18 | 23 | 140 |  | 211 | 18 |  | ABF zone diameter B. subtil. (Bacillus subtilis; dose not given): 0 mm; zone of inhibition at 10 µg/mL (Branhamella catarrhalis; dose .01 mg/ml): 15 mm
300 | CCN(CC)CCn1nc2c3c(c([N+](=O)[O-])ccc31)Nc1ccccc1-2 [Example 1, N,N-Diethyl-5-nitropyrazolo[3,4,5-kl]acridine-2(6H)-ethanamine, methanesulfonate (1:1)] | 15 | 17 | 17 | 22 |  |  |  |  | 165 | zone of inhibition at 100 µg/mL (Sarcina lutea; dose .1 mg/ml): 14 mm; response vs control in vivo at 2.5 mg/kg ([1]; 2.50 mg/kg): 122%; response vs control in vivo at 5 mg/kg ([1]; 5.00 mg/kg): 163%
 | CN1c2ccccc2-c2nn(CCNCCO)c3ccc([N+](=O)[O-])c1c23 [Example 4, 2-[[2-[6-Methyl-5-nitropyrazolo[3,4,5-kl-acridin-2-(6H)-yl]ethyl]amino]ethanol, methanesulfonate] | 20 | 16 | 18 | 19 |  | 120 | 180 | 19 |  | 
310 | CCN(CC)CCn1nc2c3c(c([N+](=O)[O-])ccc31)N(C)c1ccc(OC)cc1-2 [Example 6, N,N-Diethyl-9-methoxy-6-methyl-5-nitropyrazolo[3,4,5-kl]acridine-2(6H)-ethanamine, monomethanesulfonate] |  |  |  | 15 | 151 | 173 | 230 | 15 | 142 | zone of inhibition at 500 µg/mL (Bacillus subtilis; Bacillus subtilis, dose .5 mg/ml, read-out: ABF zone diameter B. subtil.): 19 mm; zone of inhibition at 500 µg/mL (Branhamella catarrhalis): 16 mm; zone of inhibition at 1000 µg/mL (Streptococcus faecalis): 15 mm

SMILES | IC50 (HCT-8 cells) [nM] | zone of inhibition at 100 µg/mL (Bacillus subtilis; [2]) [mm] | zone of inhibition at 100 µg/mL (Branhamella catarrhalis) [mm] | zone of inhibition at 500 µg/mL (Streptococcus faecalis) [mm] | zone of inhibition at 100 µg/mL (Alcaligenes viscolactis) [mm] | response vs control in vivo at 12.5 mg/kg [1] [%] | response vs control in vivo at 25 mg/kg [1] [%] | response vs control in vivo at 50 mg/kg [1] [%] | zone of inhibition at 500 µg/mL (Sarcina lutea) [mm] | response vs control in vivo at 6.25 mg/kg [1] [%] | further results
COc1ccc2c(c1)-c1nn(CCN(C)C)c3ccc([N+](=O)[O-])c(c13)N2 [Example 5a, 9-methoxy-N,N-dimethyl-5-nitropyrazolo[3,4,5-kl]acridine-2(6H)=-ethanamine, methanesulfonate] | 100 | 14 |  | 15 | 19 | 181 | 228 | 275 |  |  | zone of inhibition at 500 µg/mL (Branhamella catarrhalis): 21 mm; zone of inhibition at 1000 µg/mL (Sarcina lutea): 16 mm
